Data reported in ChEMBL document CHEMBL1201862, “PubChem BioAssay data set” (2004).
The source made the active and inactive calls.

What was measured:
[1] = target: Leukocyte tyrosine kinase receptor (Homo sapiens, UniProt P29376); test: Navigating the Kinome. Panel member name: LTK; assay type: functional
[2] = target: T1, Interleukin-1 receptor-associated kinase 4 (Homo sapiens, UniProt Q9NWZ3); assay type: functional
T1 sequence (Q9NWZ3 whole entry): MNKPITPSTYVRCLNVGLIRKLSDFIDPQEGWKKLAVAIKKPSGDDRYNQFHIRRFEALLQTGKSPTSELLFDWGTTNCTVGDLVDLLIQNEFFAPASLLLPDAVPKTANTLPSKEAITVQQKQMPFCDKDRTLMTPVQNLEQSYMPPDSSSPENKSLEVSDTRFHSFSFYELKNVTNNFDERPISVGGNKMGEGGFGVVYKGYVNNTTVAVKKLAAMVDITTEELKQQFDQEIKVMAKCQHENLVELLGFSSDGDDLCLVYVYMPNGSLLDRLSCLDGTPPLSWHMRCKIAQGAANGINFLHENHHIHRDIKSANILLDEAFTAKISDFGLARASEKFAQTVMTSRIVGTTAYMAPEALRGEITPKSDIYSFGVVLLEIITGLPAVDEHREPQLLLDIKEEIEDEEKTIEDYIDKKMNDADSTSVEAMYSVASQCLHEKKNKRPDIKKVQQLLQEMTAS

[3] = target: Serine/threonine-protein kinase pim-3 (Homo sapiens, UniProt Q86V86); assay type: functional;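 note: value obtained as one member of a broad kinase panel profiling effort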
[4] = target: Mitogen-activated protein kinase 8 (Homo sapiens, UniProt P45983); assay type: functional;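 note: value comes from one member of a kinome-wide kinase profiling panel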
Chain of Mitogen-activated protein kinase 8 (P45983 whole entry): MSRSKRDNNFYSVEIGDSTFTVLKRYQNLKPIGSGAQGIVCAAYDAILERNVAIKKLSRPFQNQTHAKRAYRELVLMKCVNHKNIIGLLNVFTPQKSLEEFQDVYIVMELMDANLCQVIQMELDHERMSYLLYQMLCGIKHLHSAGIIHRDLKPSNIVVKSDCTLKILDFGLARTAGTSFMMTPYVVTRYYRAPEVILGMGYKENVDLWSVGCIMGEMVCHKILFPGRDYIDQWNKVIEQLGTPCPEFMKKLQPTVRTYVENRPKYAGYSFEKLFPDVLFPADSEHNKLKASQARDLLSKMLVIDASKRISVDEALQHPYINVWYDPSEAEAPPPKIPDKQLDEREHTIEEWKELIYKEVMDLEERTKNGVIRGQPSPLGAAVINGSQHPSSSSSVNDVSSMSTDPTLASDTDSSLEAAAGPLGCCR

[5] = target: Vascular endothelial growth factor receptor 1 (Homo sapiens, UniProt P17948); assay type: functional;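 note: measured within a kinome-wide profiling panel, FLT1 as the panel member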
[6] = target: Cyclin-dependent kinase 8 (Homo sapiens, UniProt P49336); test: Navigating the Kinome. Panel member name: CDK8; assay type: functional
Chain of Cyclin-dependent kinase 8 (P49336 whole entry): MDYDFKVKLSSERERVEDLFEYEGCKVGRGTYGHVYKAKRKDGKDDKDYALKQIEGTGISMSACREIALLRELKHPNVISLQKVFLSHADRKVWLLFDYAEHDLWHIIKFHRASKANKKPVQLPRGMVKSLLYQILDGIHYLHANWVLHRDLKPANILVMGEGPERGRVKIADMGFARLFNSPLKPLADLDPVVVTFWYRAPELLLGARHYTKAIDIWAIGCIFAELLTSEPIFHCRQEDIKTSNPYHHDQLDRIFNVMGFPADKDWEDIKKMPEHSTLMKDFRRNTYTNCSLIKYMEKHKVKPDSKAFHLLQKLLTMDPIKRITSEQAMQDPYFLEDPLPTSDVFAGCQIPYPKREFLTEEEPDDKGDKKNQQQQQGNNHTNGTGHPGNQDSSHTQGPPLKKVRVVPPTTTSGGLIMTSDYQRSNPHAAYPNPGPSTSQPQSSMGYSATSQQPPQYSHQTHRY

[7] = target: Dual specificity tyrosine-phosphorylation-regulated kinase 1B (Homo sapiens, UniProt Q9Y463); test: Navigating the Kinome. Panel member name: DYRK1B; assay type: functional
Chain of Dual specificity tyrosine-phosphorylation-regulated kinase 1B (Q9Y463 whole entry): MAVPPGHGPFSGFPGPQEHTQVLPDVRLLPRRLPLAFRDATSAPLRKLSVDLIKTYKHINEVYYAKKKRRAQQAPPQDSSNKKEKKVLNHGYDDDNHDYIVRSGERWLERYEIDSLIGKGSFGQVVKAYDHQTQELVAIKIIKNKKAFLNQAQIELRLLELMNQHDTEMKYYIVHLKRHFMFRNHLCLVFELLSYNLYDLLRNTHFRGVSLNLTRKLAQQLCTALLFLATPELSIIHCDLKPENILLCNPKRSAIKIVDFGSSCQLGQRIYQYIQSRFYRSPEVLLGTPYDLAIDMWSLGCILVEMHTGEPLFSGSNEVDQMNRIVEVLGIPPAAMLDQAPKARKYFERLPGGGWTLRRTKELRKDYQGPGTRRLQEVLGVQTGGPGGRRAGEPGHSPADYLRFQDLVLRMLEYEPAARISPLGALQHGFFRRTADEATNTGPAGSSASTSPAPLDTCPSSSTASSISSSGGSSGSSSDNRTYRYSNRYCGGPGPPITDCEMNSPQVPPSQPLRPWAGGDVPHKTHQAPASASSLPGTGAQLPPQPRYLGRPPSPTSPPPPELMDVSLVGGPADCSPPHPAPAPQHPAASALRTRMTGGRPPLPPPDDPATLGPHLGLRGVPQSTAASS

[8] = target: Dual specificity protein kinase CLK2 (Homo sapiens, UniProt P49760); assay type: functional
[9] = target: Serine/threonine-protein kinase Chk2 (Homo sapiens, UniProt O96017); assay type: functional;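 note: CHEK2 entry within a kinome-wide screening panel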
Chain of Serine/threonine-protein kinase Chk2 (O96017 whole entry): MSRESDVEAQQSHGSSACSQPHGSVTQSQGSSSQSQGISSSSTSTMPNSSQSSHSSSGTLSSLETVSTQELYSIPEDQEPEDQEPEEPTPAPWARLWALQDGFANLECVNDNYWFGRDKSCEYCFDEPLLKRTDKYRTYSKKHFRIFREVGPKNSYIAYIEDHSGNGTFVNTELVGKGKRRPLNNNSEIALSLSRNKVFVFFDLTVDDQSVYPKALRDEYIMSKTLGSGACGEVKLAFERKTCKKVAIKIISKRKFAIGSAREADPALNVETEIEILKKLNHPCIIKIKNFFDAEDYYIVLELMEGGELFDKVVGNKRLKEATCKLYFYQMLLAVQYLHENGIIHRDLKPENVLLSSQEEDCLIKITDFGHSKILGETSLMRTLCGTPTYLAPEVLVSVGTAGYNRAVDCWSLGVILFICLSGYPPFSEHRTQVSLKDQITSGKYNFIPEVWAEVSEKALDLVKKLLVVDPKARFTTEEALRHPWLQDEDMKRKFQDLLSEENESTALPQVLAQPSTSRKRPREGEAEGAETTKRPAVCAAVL

[10] = target: Leucine-rich repeat serine/threonine-protein kinase 2 (Homo sapiens, UniProt Q5S007); assay type: functional;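 note: value from a broad kinome-wide panel profiling study in which LRRK2 was one of the kinases tested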
[11] = target: T2, Mitogen-activated protein kinase 12 (Homo sapiens, UniProt P53778); assay type: functional;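 note: measured as one member of a kinome-wide kinase profiling panel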
T2 sequence (P53778 whole entry): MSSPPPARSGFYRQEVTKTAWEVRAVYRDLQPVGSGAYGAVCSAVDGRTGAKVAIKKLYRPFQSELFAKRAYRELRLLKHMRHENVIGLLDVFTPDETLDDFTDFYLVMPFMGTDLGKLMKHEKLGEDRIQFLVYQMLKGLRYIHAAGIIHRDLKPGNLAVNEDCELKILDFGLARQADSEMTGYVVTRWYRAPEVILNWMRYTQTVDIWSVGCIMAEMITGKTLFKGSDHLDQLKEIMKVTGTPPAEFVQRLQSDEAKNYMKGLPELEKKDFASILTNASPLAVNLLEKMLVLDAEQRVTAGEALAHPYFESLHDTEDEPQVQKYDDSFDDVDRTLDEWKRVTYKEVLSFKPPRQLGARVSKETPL

[12] = target: Cyclin-dependent kinase 7 (Homo sapiens, UniProt P50613); assay type: functional;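 note: value comes from a kinome-wide kinase profiling panel in which CDK7 is one member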
Chain of Cyclin-dependent kinase 7 (P50613 whole entry): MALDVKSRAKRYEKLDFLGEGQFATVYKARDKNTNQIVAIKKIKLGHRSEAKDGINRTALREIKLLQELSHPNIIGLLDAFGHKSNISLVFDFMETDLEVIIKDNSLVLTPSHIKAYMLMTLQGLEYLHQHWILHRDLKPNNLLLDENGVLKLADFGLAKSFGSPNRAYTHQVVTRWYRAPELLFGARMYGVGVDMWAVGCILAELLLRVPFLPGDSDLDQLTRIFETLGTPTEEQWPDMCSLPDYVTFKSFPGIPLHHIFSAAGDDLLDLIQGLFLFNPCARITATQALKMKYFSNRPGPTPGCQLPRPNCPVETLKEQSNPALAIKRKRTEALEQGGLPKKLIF

[13] = target: Proto-oncogene tyrosine-protein kinase receptor Ret (Homo sapiens, UniProt P07949); assay type: functional;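 note: measured within a kinome-wide profiling panel, RET as the panel member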
[14] = target: Serine/threonine-protein kinase TBK1 (Homo sapiens, UniProt Q9UHD2); test: Navigating the Kinome. Panel member name: TBK1; assay type: functional
[15] = target: Mitogen-activated protein kinase kinase kinase kinase 4 (Homo sapiens, UniProt O95819); assay type: functional
[16] = target: Mitogen-activated protein kinase 14 (Homo sapiens, UniProt Q16539); assay type: functional;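 note: part of a kinome-wide panel, MAPK14 entry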
[17] = target: Dual specificity protein kinase CLK4 (Homo sapiens, UniProt Q9HAZ1); assay type: functional
Activin receptor type-1 = Activin receptor type-1 (Homo sapiens, UniProt Q04771); test: Navigating the Kinome. Panel member name: ACVR1; assay type: functional
Chain of Activin receptor type-1 (Q04771 whole entry): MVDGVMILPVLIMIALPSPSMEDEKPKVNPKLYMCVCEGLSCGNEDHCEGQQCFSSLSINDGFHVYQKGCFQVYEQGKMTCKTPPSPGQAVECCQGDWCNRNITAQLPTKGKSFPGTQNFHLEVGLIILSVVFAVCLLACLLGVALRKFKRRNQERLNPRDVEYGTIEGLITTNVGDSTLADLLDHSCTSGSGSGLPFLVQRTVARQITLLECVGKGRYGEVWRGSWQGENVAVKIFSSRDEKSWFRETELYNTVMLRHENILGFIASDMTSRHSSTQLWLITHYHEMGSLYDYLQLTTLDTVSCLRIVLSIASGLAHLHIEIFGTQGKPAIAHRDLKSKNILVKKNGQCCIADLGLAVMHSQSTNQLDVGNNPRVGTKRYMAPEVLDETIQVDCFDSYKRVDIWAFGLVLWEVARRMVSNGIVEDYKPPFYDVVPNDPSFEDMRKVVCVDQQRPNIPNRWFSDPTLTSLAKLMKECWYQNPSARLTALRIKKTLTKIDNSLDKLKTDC

[18] = target: Tyrosine-protein kinase JAK2 (Homo sapiens, UniProt O60674); assay type: functional;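 note: JAK2 tested as one member of a kinase panel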
Chain of Tyrosine-protein kinase JAK2 (O60674 whole entry): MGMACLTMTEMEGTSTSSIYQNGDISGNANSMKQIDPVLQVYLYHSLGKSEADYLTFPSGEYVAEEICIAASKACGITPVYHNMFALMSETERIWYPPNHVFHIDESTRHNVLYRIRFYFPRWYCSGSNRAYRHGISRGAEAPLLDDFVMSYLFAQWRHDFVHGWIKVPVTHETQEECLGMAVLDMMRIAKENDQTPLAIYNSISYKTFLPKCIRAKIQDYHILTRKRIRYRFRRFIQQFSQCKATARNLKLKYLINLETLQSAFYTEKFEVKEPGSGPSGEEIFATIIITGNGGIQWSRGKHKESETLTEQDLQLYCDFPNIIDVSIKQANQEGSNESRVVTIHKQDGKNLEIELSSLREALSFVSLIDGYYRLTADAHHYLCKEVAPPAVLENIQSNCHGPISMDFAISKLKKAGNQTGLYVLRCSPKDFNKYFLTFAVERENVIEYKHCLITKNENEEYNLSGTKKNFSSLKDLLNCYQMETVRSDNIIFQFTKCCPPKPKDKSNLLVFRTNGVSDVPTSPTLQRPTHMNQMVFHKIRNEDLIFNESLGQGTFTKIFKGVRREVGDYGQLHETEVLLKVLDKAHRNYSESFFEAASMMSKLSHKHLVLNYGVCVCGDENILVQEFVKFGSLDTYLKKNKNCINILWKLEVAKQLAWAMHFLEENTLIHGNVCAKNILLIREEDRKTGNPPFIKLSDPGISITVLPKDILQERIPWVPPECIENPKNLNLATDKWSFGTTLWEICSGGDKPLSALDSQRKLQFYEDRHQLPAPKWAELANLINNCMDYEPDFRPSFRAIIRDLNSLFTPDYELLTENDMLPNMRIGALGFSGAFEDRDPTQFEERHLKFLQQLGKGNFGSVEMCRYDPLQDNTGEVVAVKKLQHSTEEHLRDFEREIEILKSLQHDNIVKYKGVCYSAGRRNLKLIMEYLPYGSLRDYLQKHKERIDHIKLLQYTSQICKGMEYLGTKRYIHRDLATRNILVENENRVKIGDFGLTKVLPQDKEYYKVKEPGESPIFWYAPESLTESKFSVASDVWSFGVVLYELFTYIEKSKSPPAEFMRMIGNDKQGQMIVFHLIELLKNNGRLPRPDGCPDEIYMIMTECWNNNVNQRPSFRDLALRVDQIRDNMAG

[19] = target: Megakaryocyte-associated tyrosine-protein kinase (Homo sapiens, UniProt P42679); assay type: functional;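 note: affinity measured as one member of a kinase panel (Navigating the Kinome) against MATK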
[20] = target: Protein kinase C zeta type (Homo sapiens, UniProt Q05513); assay type: functional;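 note: measured as one member of a broad kinase profiling panel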
Chain of Protein kinase C zeta type (Q05513 whole entry): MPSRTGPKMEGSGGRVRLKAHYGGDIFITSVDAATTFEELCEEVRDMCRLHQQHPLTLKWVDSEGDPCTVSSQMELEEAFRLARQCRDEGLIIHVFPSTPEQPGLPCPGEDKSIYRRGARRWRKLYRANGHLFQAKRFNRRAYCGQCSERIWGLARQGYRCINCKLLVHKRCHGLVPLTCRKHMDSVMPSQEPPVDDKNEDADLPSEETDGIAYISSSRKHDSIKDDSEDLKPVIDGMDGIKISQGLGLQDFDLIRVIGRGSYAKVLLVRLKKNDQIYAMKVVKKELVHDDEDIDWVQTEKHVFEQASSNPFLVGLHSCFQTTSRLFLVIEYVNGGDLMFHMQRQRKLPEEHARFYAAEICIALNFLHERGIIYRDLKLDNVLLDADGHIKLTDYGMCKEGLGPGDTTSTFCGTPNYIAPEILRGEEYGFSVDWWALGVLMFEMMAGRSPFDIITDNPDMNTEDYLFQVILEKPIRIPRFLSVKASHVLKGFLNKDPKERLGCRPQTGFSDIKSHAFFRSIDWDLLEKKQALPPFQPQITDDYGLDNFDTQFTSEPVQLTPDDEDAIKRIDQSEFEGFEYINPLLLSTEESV

[21] = target: Rho-associated protein kinase 2 (Homo sapiens, UniProt O75116); assay type: functional
[22] = target: Calcium/calmodulin-dependent protein kinase type II subunit beta (Homo sapiens, UniProt Q13554); assay type: functional
[23] = target: Tyrosine-protein kinase receptor UFO (Homo sapiens, UniProt P30530); assay type: functional
[24] = target: Tyrosine-protein kinase Lyn (Homo sapiens, UniProt P07948); assay type: functional;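 note: lyn as one member of a kinase panel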
LIM domain kinase 1 = LIM domain kinase 1 (Homo sapiens, UniProt P53667); test: Navigating the Kinome. Panel member name: LIMK1; assay type: functional
[25] = target: Inhibitor of nuclear factor kappa-B kinase subunit alpha (Homo sapiens, UniProt O15111); assay type: functional
Insulin receptor = Insulin receptor (Homo sapiens, UniProt P06213); assay type: functional;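 note: insulin receptor kinase tested as one member of a kinome-wide kinase panel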
[26] = target: Vascular endothelial growth factor receptor 3 (Homo sapiens, UniProt P35916); assay type: functional;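 note: value from a kinome-wide profiling panel, with FLT4 as the panel member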
[27] = target: Tyrosine-protein kinase Lck (Homo sapiens, UniProt P06239); assay type: functional;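 note: lck was assayed as one member of a kinase panel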
[28] = target: Cyclin-dependent kinase 1 (Homo sapiens, UniProt P06493); assay type: functional;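 note: Kinome-wide panel profiling, with the target listed as panel member CDC2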
[29] = target: Eukaryotic elongation factor 2 kinase (Homo sapiens, UniProt O00418); assay type: functional
[30] = Dose-response inhibition of insulin secretion in a rat insulinoma line at 5 mM glucose (AID 1117331); assay type: functional, cell-based; conditions: INS-1E

NC(=O)c1cc(-c2ccnc(N)n2)[nH]c1-c1ccc(Cl)cc1Cl
Ki [1]: > 2510 nM (inactive)
Ki [2]: 631 nM (active)
pKi [2]: 6.2
Ki [3]: 398 nM (active)
pKi [3]: 6.4
Ki [4]: 398 nM (active)
pKi [4]: 6.4
Ki [5]: > 398 nM (inactive)
Ki [6]: 15.8 nM (active)
pKi [6]: 7.8
Ki [7]: 0.631 nM (active)
pKi [7]: 9.2
Ki [8]: > 2.51 nM (inactive)
Ki [9]: 1260 nM (active)
pKi [9]: 5.9
Ki [10]: 316 nM (active)
pKi [10]: 6.5
Ki [11]: 79.4 nM (active)
pKi [11]: 7.1
Ki [12]: 158 nM (active)
pKi [12]: 6.8
Ki [13]: > 1260 nM (inactive)
Ki [14]: > 3160 nM (inactive)
Ki [15]: 1580 nM (active)
pKi [15]: 5.8
Ki [16]: > 3980 nM (inactive)
Ki [17]: 0.631 nM (active)
pKi [17]: 9.2
Ki (Activin receptor type-1): 2000 nM (active)
pKi (Activin receptor type-1): 5.7
Ki [18]: 20 nM (active)
pKi [18]: 7.7
Ki [19]: > 2000 nM (inactive)
Ki [20]: 794 nM (active)
pKi [20]: 6.1

NC(COc1cncc(-c2ccc3c(c2)C(=Cc2ccco2)C(=O)N3)c1)Cc1c[nH]c2ccccc12 (stereo not given)
Ki [21]: 12.6 nM (active)
Ki [22]: 251 nM (active)
Ki [2]: 251 nM (active)
Ki [23]: 10 nM (active)
Ki [4]: 316 nM (active)
Ki [5]: > 398 nM (inactive)
Ki [24]: 316 nM (active)
Ki (LIM domain kinase 1): 794 nM (active)
Ki [25]: 398 nM (active)
Ki (Insulin receptor): > 5010 nM (inactive)
Ki [9]: 50.1 nM (active)
Ki [26]: 25.1 nM (active)
Ki [11]: 2510 nM (active)
Ki [13]: 50.1 nM (active)
Ki [27]: 398 nM (active)
Ki [28]: 251 nM (active)
Ki [29]: 1260 nM (active)
Ki [18]: 316 nM (active)
Ki [19]: > 2000 nM (inactive)

Cc1ccc(-n2nc(C(C)(C)C)cc2NC(=O)Nc2ccc(OCCN3CCOCC3)c3ccccc23)cc1 [DORAMAPIMOD]
IC50 [30]: > 33300 nM (inactive)
